Values joined by “and” are separate entries in the source; they are usually repeats but may differ in a detail not shown here. Equal entries are not always repeated.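 How tested: cells in 96-well plates exposed to compound for 48 hours at five concentrations. GI50: concentration for 50% inhibition of growth. TGI: concentration producing complete growth inhibition.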
What was measured:
Test in all cases: NCI-60 cell line screen, 48 h
HCT-116 colon = test system: HCT-116 colon
HL-60(TB) leukemia = test system: HL-60(TB) leukemia
MCF7 breast = test system: MCF7 breast
MOLT-4 leukemia = test system: MOLT-4 leukemia
NCI-H460 lung = test system: NCI-H460 lung
OVCAR-5 ovarian = test system: OVCAR-5 ovarian
SF-539 CNS = test system: SF-539 CNS
SNB-75 CNS = test system: SNB-75 CNS
SW-620 colon = test system: SW-620 colon
UACC-257 melanoma = test system: UACC-257 melanoma

Structure (SMILES)	GI50 (HCT-116 colon)	TGI (HCT-116 colon)	GI50 (HL-60(TB) leukemia) [µM]	TGI (HL-60(TB) leukemia)	GI50 (MCF7 breast)	TGI (MCF7 breast) [µM]	GI50 (MOLT-4 leukemia)	TGI (MOLT-4 leukemia) [µM]	GI50 (NCI-H460 lung)	TGI (NCI-H460 lung)	GI50 (OVCAR-5 ovarian)	TGI (OVCAR-5 ovarian)	GI50 (SF-539 CNS)	TGI (SF-539 CNS)	GI50 (SNB-75 CNS)	TGI (SNB-75 CNS)	GI50 (SW-620 colon)	TGI (SW-620 colon)	GI50 (UACC-257 melanoma)	TGI (UACC-257 melanoma)
O=P(CCCCP(=O)(c1ccccc1)c1ccccc1)(c1ccccc1)c1ccccc1.[Cl][Sn]([Cl])([c]1ccccc1)[c]1ccccc1	1.71 µM	> 100 µM	2.04	6.61 µM	0.876 µM	2.64	2.06 µM	> 100	6.51 µM	15.9 µM	1.93 µM	4 µM	1.43 µM	3.64 µM	1.57 µM	3.29 µM	0.696 µM	5.59 µM	1.68 µM	3.31 µM
COc1cc(NC(=O)CSc2nc3ccc(C)cc3c(=O)n2Cc2ccccc2)cc(OC)c1OC	3.38 µM	> 100 µM	> 100	> 100 µM	9.98 µM	> 100	> 100 µM	> 100	7.24 µM	> 100 µM	58 µM	> 100 µM	3.46 µM	13.8 µM	1.82 µM	4.33 µM	> 100 µM	> 100 µM	4.86 µM	> 100 µM
C=C(C)[C@@H]1CC[C@]2(C)[C@H](CC=C3[C@@H]4[C@@H](C)[C@H](C)CC[C@]4(C(N)=O)CC[C@]32C)[C@@]1(C)CCC#N	15.6 µM	29.9 µM	2.35	6.03 µM	3.59 µM	> 100	2.92 µM	21	8.35 µM	29.6 µM	5.75 µM	> 100 µM	4.79 µM	16.6 µM	3.57 µM	> 100 µM	4.5 µM	> 100 µM	5.39 µM	76.5 µM
CCC[CH2][Sn]([CH2]CCC)([CH2]CCC)[O]C(=O)c1ccc(Cl)cc1Cl	0.127 µM	0.262 µM	0.187	0.494 µM	0.137 µM	0.278	0.215 µM	1.71	0.143 µM	0.299 µM	0.135 µM	0.315 µM	0.172 µM	0.327 µM	0.117 µM	0.248 µM	0.158 µM	0.335 µM	0.155 µM	0.313 µM
CC(=O)OCC(=O)[C@@]12OC(C)(C)O[C@@H]1C[C@H]1[C@@H]3CC=C4C[C@@H](O)CC[C@]4(C)[C@H]3CC[C@@]12C		> 100 µM		> 100 µM		> 100		> 100				> 100 µM		74.7 µM		29.4 µM		> 100 µM		> 100 µM
CC(C)COCC(CN(Cc1ccccc1)c1ccccc1)N1CCCC1 (stereo not drawn)	2.52 µM	10.4 µM	3.09	7.56 µM	2.06 µM	4.78	3.61 µM	13.1	2.54 µM	8.14 µM	3.93 µM	15.8 µM	6.46 µM	19.4 µM	3.47 µM	17.6 µM	3.54 µM	15.2 µM	3.28 µM	15.3 µM
N#CC1=C(N)Oc2c(sc3c(Br)cccc23)C1c1ccc(Br)cc1 (stereo not drawn)	0.407 µM	1.84 µM	0.28	0.788 µM	0.382 µM	12.4	0.546 µM	8.11	0.668 µM	4.51 µM	3.12 µM	14.3 µM	0.793 µM	3.02 µM	0.407 µM	3.09 µM	1.55 µM	15.1 µM	1.19 µM	15.4 µM
CC(NCCC(=O)N(CCC(=O)N(CCC(=O)N(CCC(=O)N(CCC(=O)N(CCC(=O)N(CCC(=O)N(CCC(=O)N(CCC(=O)N(CCC(=O)O)[C@H](C)c1ccccc1)[C@H](C)c1ccccc1)[C@H](C)c1ccccc1)[C@H](C)c1ccccc1)[C@H](C)c1ccccc1)[C@H](C)c1ccccc1)[C@H](C)c1ccccc1)[C@H](C)c1ccccc1)[C@H](C)c1ccccc1)c1ccccc1 (stereo partly drawn)	1.95 µM	> 19.9 µM	2.44	13.9 µM	2.03 µM	> 26.1	1.61 µM	6.7	2.05 µM	6.64 µM	> 18.8 µM	> 75 µM	1.49 µM	3.67 µM	2.2 µM	41.1 µM	2.91 µM	> 35 µM	1.76 µM	4.15 µM
O=C1C=CC[C@H](/C=C/c2ccccc2)O1	1.72 µM	13.9 µM		> 34 µM	1.65 µM	> 37.8		> 100	1.53 µM	14.3 µM	1.92 µM	10.4 µM	0.813 µM	8.24 µM	0.394 µM	4.69 µM	1.39 µM	16 µM	9.81 µM	26.9 µM
O=C(c1ccccc1)C(Br)C(Br)c1cccc([N+](=O)[O-])c1 (stereo not drawn)	0.864 µM	2.08 µM	2.04	4.68 µM	1.28 µM	3.63	2.09 µM	5.39	3.12 µM	14.9 µM	2.46 µM	5.65 µM	2.32 µM	5.05 µM	6.48 µM	19.8 µM	0.342 µM	1.49 µM	1.8 µM	3.89 µM
CCCCCCCCCCCCOC1C(C(COC2OC(C3COC(C)(C)O3)C3OC(C)(C)OC23)NC(=O)NS(=O)(=O)c2ccccc2)OC2OC(C)(C)OC21 (stereo not drawn)	4.05 µM	16.3 µM	0.406	2.69 µM	2.98 µM	12.9	0.0149 µM	0.12	3.04 µM	12.6 µM	4.34 µM	13.8 µM	2.53 µM	6.54 µM	11.4 µM	31.6 µM	5.14 µM	18.5 µM	4 µM	16.5 µM
Cc1ccc2c(c1)C(C)Cc1c(Cl)ncnc1N2C (stereo not drawn)	3.01 µM	14.2 µM	3.07	71.8 µM	2.96 µM	11.7	3.37 µM	> 100	3.66 µM	91 µM	5.05 µM	49.3 µM	3.85 µM	19 µM	0.394 µM	22.5 µM	3.2 µM	13.3 µM	4.29 µM	46.2 µM
CN1C(=O)C(CC(=O)O)NC1=S (stereo not drawn)		> 100 µM		> 100 µM		> 100		> 100		> 100 µM		> 100 µM		> 100 µM		> 100 µM		> 100 µM		> 100 µM
CC(C)c1c(O)ccc2c1CCC1C(C)(C)CCCC21C (stereo not drawn)		31 µM		52.3 µM		35.3		43.3		31.7 µM		28.1 µM		34 µM		33.1 µM		40.1 µM		32.2 µM
CC1(O)CC(c2nc(-c3ccc4ccc(-c5ccccc5)nc4c3)c3c(N)nccn23)C1 (stereo not drawn)	7.32 µM and 5.29 µM	26.7 µM and > 10 µM		25.8 µM and > 10 µM	0.122 µM and 0.332 µM	> 43.3	7.16 µM and 3.72 µM	> 80.1	2.7 µM and 1.5 µM	24.8 µM and > 10 µM	12.1 µM and > 10 µM	44.7 µM and > 10 µM	11.9 µM and > 10 µM	28.8 µM and > 10 µM	4.62 µM and 5.57 µM	43.2 µM and > 10 µM	4.87 µM and 2.36 µM	34.8 µM and > 10 µM	5.68 µM and > 10 µM	48.2 µM and > 10 µM
Oc1ccccc1CNCC12CC3CC(CC(C3)C1)C2	22 µM	> 100 µM	22	53.3 µM	16.8 µM	34.7	24.5 µM	70.2	23.3 µM	57.7 µM	33 µM	> 100 µM	33.3 µM	> 100 µM	34.9 µM	> 100 µM	24.3 µM	84.8 µM		
COC(=O)CCC1CCC(c2cc(F)ccc2F)(S(=O)(=O)c2ccc(Cl)cc2)CC1 (stereo not drawn)	38.2 µM	> 100 µM	45.3	> 100 µM	70.2 µM	> 100	49.8 µM	> 100	52.1 µM	> 100 µM	> 100 µM	> 100 µM	> 100 µM	> 100 µM	> 100 µM	> 100 µM	> 100 µM	> 100 µM	48.9 µM	> 100 µM
Oc1ccccc1C=Nc1nc(SCc2ccccc2)nc2[nH]ncc12			26.1	95.7 µM	39.1 µM	> 100	24.8 µM	> 100	36.9 µM	> 100 µM	> 100 µM	> 100 µM	> 100 µM	> 100 µM	> 100 µM	> 100 µM	40 µM	> 100 µM	52.3 µM	> 100 µM
CCCCCCCCCCC(C(O)c1ccccc1)N1CCCCC1 (stereo not drawn)	1.62 µM	3.01 µM	1.96	4.25 µM	1.87 µM	3.43	2.23 µM	5.86	1.84 µM	3.36 µM	2.47 µM	6.85 µM	2.06 µM	3.84 µM	2.32 µM	5.65 µM	1.7 µM	3.21 µM	2.02 µM	4.28 µM
O=Cc1ccccc1B(O)O		> 100 µM		> 100 µM		> 100		26.1		> 100 µM		> 100 µM		> 100 µM		> 100 µM		> 100 µM		> 100 µM
CCN1C(=O)N(c2ccccc2)C2NC(=S)N(/N=C/C=C/c3ccccc3)C21 (stereo not drawn)	0.297 µM	> 100 µM	0.227	0.745 µM	0.193 µM	> 100	0.38 µM	> 100	0.377 µM	> 36.1 µM	0.631 µM	> 100 µM	0.246 µM	0.854 µM	> 100 µM	> 100 µM	0.38 µM	> 100 µM	25 µM	> 100 µM
CNCCNc1c2c(c(NCCNC)c3[nH]ccc13)C(=O)c1ccccc1C2=O	0.0269 µM	0.498 µM	0.195	0.838 µM	0.154 µM	1.19	< 0.0261 µM		0.0991 µM	0.501 µM	0.536 µM	1.93 µM	0.458 µM	1.07 µM	3.5 µM	8.86 µM	0.299 µM	0.804 µM	1.72 µM	7.04 µM
O=C(Nc1ccc2[nH]c(=S)sc2c1)Nc1ccccc1F	37.7 µM	> 100 µM	23.9	93.5 µM	36.7 µM	> 100	22.4 µM	> 100	38 µM	> 100 µM	56.4 µM	> 100 µM	29.6 µM	> 100 µM	22.9 µM	> 100 µM	43.1 µM	> 100 µM	73.5 µM	> 100 µM
CNC(=O)CC1NC(=O)c2csc(n2)-c2ccc(-c3nc(C4=NC(C(=O)N5CCCC5C(N)=O)CO4)cs3)nc2-c2csc(n2)-c2csc(n2)C(C(C)C)NC(=O)CNC(=O)c2csc(n2)C(C(C)C)NC(=O)c2nc1sc2C (stereo not drawn)	> 25 µM	> 25 µM	< 0.001		< 0.001 µM		1.63 µM	> 25	> 25 µM	> 25 µM			> 25 µM		> 25 µM		> 25 µM	> 25 µM	> 25 µM	> 25 µM
Cc1cc(=O)[nH]c2cc3c(c4c(n3Cc3ccc(Cl)cc3Cl)CC(C)(C)CC4=O)c(O)c12	> 100 µM	> 100 µM	> 100	> 100 µM	> 100 µM	> 100	> 100 µM	> 100	79.5 µM	> 100 µM			> 100 µM	> 100 µM	24.6 µM	59.8 µM	> 100 µM	> 100 µM	> 100 µM	> 100 µM

Source: PubChem BioAssay (NCI)
